Results: patent US20080234254A1, “Inhibitors of Histone Deacetylase” (UNIVERSITY OF LEEDS, priority 2004, published 2008)
Read-outs that look alike come from different tables or passages of the source. One block for each compound: values may come before it.

Assays:
NCI/ADR-RES = experiment: Screening against cancer cell lines: NCI/ADR-RES (Breast); assay type: cell-based
Description: (§1) Screening of Benzamide Derivatives Against Cancer Cell Lines Tables 1 and 2 tabulate by way of example the results obtained for compounds (4) and (6).
(§2) 7 breast cancer cell lines were screened against both compound (4) and MS275.

NCI-H522 = experiment: Screening against cancer cell lines: NCI-H522 (Non-Small Cell Lung); assay type: cell-based
Description: as §1
(§3) 8 non-small cell lung cancer cell lines were screened against both compound (4) and MS275.

MDA-MB-435 = experiment: Screening against cancer cell lines: MDA-MB-435 (Breast); assay type: cell-based
Description: as §1, §2

NCI-H23 = experiment: Screening against cancer cell lines: NCI-H23 (Non-Small Cell Lung); assay type: cell-based
Description: as §1, §3

cancer cell lines = experiment: Screening of benzamide derivatives against cancer cell lines (summary); assay type: cell-based; conditions: summary of Tables 1 and 2
Description: as §1

IGROV1 = experiment: Screening against cancer cell lines: IGROV1 (Ovarian); assay type: cell-based; conditions: for GI50: IGROV-1
Description: as §1
(§4) 6 ovarian cancer cell lines were screened against both compound (4) and MS275.

HCC-2998 = experiment: Screening against cancer cell lines: HCC-2998 (Colon); assay type: cell-based
Description: as §1
(§5) 6 colon cancer cell lines were screened against both compound (4) and MS275.

LOX IMVI = experiment: Screening against cancer cell lines: LOX IMVI (Melanoma); assay type: cell-based
Description: as §1
(§6) 7 melanoma cancer cell lines were screened against both compound (4) and MS275.

SR = experiment: Screening against cancer cell lines: SR (Leukaemia); assay type: cell-based
Description: as §1

786-0 = experiment: Comparison test versus MS275: 786-0 (renal cancer); assay type: cell-based; conditions: Homo sapiens, read-out: potency (quantity not named; values match GI50 of Table 1)
Description: (§7) 7 renal cancer cell lines were screened against both compound (4) and MS275.

SK-MEL-28 = experiment: Screening against cancer cell lines: SK-MEL-28 (Melanoma); assay type: cell-based; conditions: Homo sapiens; SK-MEL-28, melanoma; comparison versus MS275; read-out: potency (quantity not named; values match GI50 of Table 1)
Description: as §1, §6

UACC-257 = experiment: Screening against cancer cell lines: UACC-257 (Melanoma); assay type: cell-based; conditions: Homo sapiens; UACC-257, melanoma; comparison versus MS275; read-out: potency (quantity not named; values match GI50 of Table 1)
Description: as §1, §6

SN12C = experiment: Screening against cancer cell lines: SN12C (Renal); assay type: cell-based; conditions: Homo sapiens, renal cancer, comparison versus MS275, read-out: potency (quantity not named; values match GI50 of Table 1)
Description: as §1, §7

MDA-MB-231/ATCC = experiment: Screening against cancer cell lines: MDA-MB-231/ATCC (Breast); assay type: cell-based; conditions: Homo sapiens, breast cancer, comparison versus MS275, read-out: potency (quantity not named; values match GI50 of Table 1)
Description: as §1, §2

HCT-15 = experiment: Screening against cancer cell lines: HCT-15 (Colon); assay type: cell-based; conditions: Homo sapiens; HCT-15, colon cancer; comparison versus MS275; read-out: potency (quantity not named; values match GI50 of Table 1)
Description: as §1, §5

ACHN = experiment: Screening against cancer cell lines: ACHN (Renal); assay type: cell-based; conditions: Homo sapiens, renal cancer, comparison versus MS275, read-out: potency (quantity not named; values match GI50 of Table 1)
Description: as §1, §7

RXF 393 = experiment: Screening against cancer cell lines: RXF 393 (Renal); assay type: cell-based; conditions: Homo sapiens; RXF 393, renal cancer; comparison versus MS275; read-out: potency (quantity not named; values match GI50 of Table 1)
Description: as §1, §7

SK-OV-3 = experiment: Comparison test versus MS275: SK-OV-3 (ovarian cancer); assay type: cell-based; conditions: Homo sapiens, read-out: potency (quantity not named; values match GI50 of Table 1)
Description: as §4

KM-12 = experiment: Comparison test versus MS275: KM-12 (colon cancer); assay type: cell-based; conditions: Homo sapiens, KM12, read-out: potency (quantity not named; values match GI50 of Table 1)
Description: as §5

OVCAR-4 = experiment: Comparison test versus MS275: OVCAR-4 (ovarian cancer); assay type: cell-based; conditions: Homo sapiens, read-out: potency (quantity not named; values match GI50 of Table 1)
Description: as §4

tumours = conditions: mice; cited from earlier work
rat fibroblasts = conditions: cited from earlier work

melting point: 163 to 164 °C
SMILES: C=C(CN1CCOCC1)c1ccc(C(=O)Nc2ccccc2N)cc1 [(1), N-(2-Amino-phenyl)-4-(1-morpholin-4-ylmethyl-vinyl)-benzamide]

melting point: 129 °C
SMILES: C=C(CN1CCOCC1)c1ccc(CC(=O)Nc2ccccc2N)cc1 [(11), N-(2-Amino-phenyl)-2-[4-(1-morpholin-4-ylmethyl-vinyl)-phenyl]-acetamide]

melting point: 120 °C
SMILES: CC(C)=C(CN1CCc2ccccc2C1)c1ccc(C(=O)Nc2ccccc2N)cc1 [(14), N-(2-Amino-phenyl)-4-[1-(3,4-dihydro-1H-isoquinolin-2-ylmethyl)-2-methyl-propenyl]-benzamide]

GI50 (NCI/ADR-RES; Homo sapiens, breast cancer, comparison versus MS275, read-out: potency (quantity not named; values match GI50 of Table 1)): 1260 nM | GI50 (786-0): 3160 nM | GI50 (NCI-H522; Homo sapiens, NCI-H522, non-small cell lung cancer, comparison versus MS275, read-out: potency (quantity not named; values match GI50 of Table 1)): 1000 nM | GI50 (MDA-MB-435; Homo sapiens, MDA-MB-435, breast cancer, comparison versus MS275, read-out: potency (quantity not named; values match GI50 of Table 1)): 10000 nM | GI50 (NCI-H23; Homo sapiens, NCI-H23, non-small cell lung cancer, comparison versus MS275, read-out: potency (quantity not named; values match GI50 of Table 1)): 1030 nM | GI50 (SK-MEL-28): 2000 nM | GI50 (UACC-257): 1540 nM | GI50 (SN12C): 5010 nM | GI50 (MDA-MB-231/ATCC): 2000 nM | GI50 (IGROV1; Homo sapiens, IGROV1, ovarian cancer, comparison versus MS275, read-out: potency (quantity not named; values match GI50 of Table 1)): 2510 nM | GI50 (HCT-15): 3980 nM | GI50 (HCC-2998; Homo sapiens, HCC-2998, colon cancer, comparison versus MS275, read-out: potency (quantity not named; values match GI50 of Table 1)): 1260 nM | GI50 (ACHN): 2000 nM | GI50 (LOX IMVI; Homo sapiens, melanoma, comparison versus MS275, read-out: potency (quantity not named; values match GI50 of Table 1)): 790 nM | GI50 (RXF 393): 2000 nM | GI50 (SK-OV-3): 5010 nM | GI50 (KM-12): 25000 nM | GI50 (OVCAR-4): 20000 nM
SMILES: Nc1ccccc1NC(=O)c1ccc(CNC(=O)OCc2cccnc2)cc1 [MS275, reference compound]

The remaining lines, values behind:

SMILES: C=C(CN(C)Cc1ccccc1)c1ccc(C(=O)Nc2ccccc2N)cc1 [(2), N-(2-amino-phenyl)-4-(1-{[benzyl(methyl)amino]methyl}vinyl)benzamide]
melting point: 110 to 111 °C

SMILES: C=C(CN1CCc2c([nH]c3ccccc23)C1)c1ccc(C(=O)Nc2ccccc2N)cc1 [(6), N-(2-aminophenyl)-4-[1-(1,3,4,9-tetrahydro-2H-β-carbolin-2-ylmethyl)vinyl]benzamide]
TGI (NCI/ADR-RES; Breast, Table 2): 3900 nM | GI50 (NCI/ADR-RES; Homo sapiens): 973 nM | CC50 (NCI/ADR-RES; Homo sapiens, read-out: LC50): 18300 nM | GI50 (NCI-H522; Homo sapiens, NCI-H522): 150 nM | CC50 (NCI-H522; Homo sapiens, NCI-H522, read-out: LC50): > 50000 nM | TGI (NCI-H522; NCI-H522, Non-Small Cell Lung, Table 2): 3000 nM | GI50 (MDA-MB-435; Homo sapiens, MDA-MB-435): 948 nM | CC50 (MDA-MB-435; Homo sapiens, MDA-MB-435, read-out: LC50): 5600 nM | TGI (MDA-MB-435; MDA-MB-435, Breast, Table 2): 2200 nM | GI50 (NCI-H23; Homo sapiens, NCI-H23): 1040 nM | CC50 (NCI-H23; Homo sapiens, NCI-H23, read-out: LC50): 13400 nM | TGI (NCI-H23; NCI-H23, Non-Small Cell Lung, Table 2): 3200 nM | activity against cancer cell lines (in words) (cancer cell lines): nanomolar activity | GI50 (IGROV1; Homo sapiens): 32 nM | CC50 (IGROV1; Homo sapiens, IGROV-1, read-out: LC50): > 50000 nM | TGI (IGROV1; IGROV1, Ovarian, Table 2): 8500 nM | TGI (HCC-2998; HCC-2998, Colon, Table 2): 1900 nM | GI50 (HCC-2998; Homo sapiens, HCC 2998): 731 nM | CC50 (HCC-2998; Homo sapiens, HCC 2998, read-out: LC50): 5000 nM | GI50 (LOX IMVI; Homo sapiens): 763 nM | CC50 (LOX IMVI; Homo sapiens, read-out: LC50): > 50000 nM | TGI (LOX IMVI; Melanoma, Table 2): 2400 nM | GI50 (SR; Homo sapiens): 622 nM | CC50 (SR; Homo sapiens, read-out: LC50): > 50000 nM | TGI (SR; Leukaemia, Table 2): — (‘—’ indicates a concentration exceeding 50 μM.)

SMILES: C=C(CNCc1ccccc1)c1ccc(C(=O)Nc2ccccc2N)cc1 [(7), N-(2-aminophenyl)-4-{1-[(benzylamino)methyl]vinyl}benzamide]
melting point: 89 to 91 °C

SMILES: C=C(CN1CCN(c2ccccc2OC)CC1)c1ccc(C(=O)Nc2ccccc2N)cc1 [(9), N-(2-aminophenyl)-4-{1-[4-(2-methoxy-phenyl)-piperazin-1-ylmethyl]vinyl}-benzamide]
melting point: 115 to 116 °C

SMILES: C=C(CN1CCOCC1)c1ccc(CCCC(=O)Nc2ccccc2N)cc1 [(13), N-(2-Amino-phenyl)-4-[4-(1-morpholin-4-ylmethyl-vinyl)-phenyl]-butanamide]
melting point: 79 to 81 °C

SMILES: CC(/C=C/C(=O)NO)=C\[C@@H](C)C(=O)c1ccc(N(C)C)cc1 [Trichostatin A]
formation of tumours (tumours): prevent the formation of tumours in mice | effect on the cell cycle (rat fibroblasts): arrest of rat fibroblasts at the G1 and G2 phases of the cell cycle
